Experimental data as given in ChEMBL document CHEMBL1201862, “PubChem BioAssay data set” (2004).
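Briefly, cells in 96-well plates were exposed to five compound concentrations for 48 h, and endpoints were estimated by linear interpolation. GI50 marks 50% less growth.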 The source made the active and inactive calls. Rule as the data show it: active = GI50 up to about 1.1 µM and inactive = higher.

How the values were obtained:
Test in all cases: NCI anticancer screen, dose series, 48 h
A498 = system: A498
A549 = system: A549
BT-549 = system: BT-549
CAKI-1 = system: CAKI-1
CCRF-CEM = system: CCRF-CEM
COLO 205 = system: COLO 205
EKVX = system: EKVX
HCT-116 = system: HCT-116
HCT-15 = system: HCT-15
HL-60 = system: HL-60
HOP-62 = system: HOP-62
HOP-92 = system: HOP-92
HT-29 = system: HT-29
Hs-578T = system: Hs-578T
IGROV-1 = system: IGROV-1
K562 = system: K562
KM12 = system: KM12
LOX IMVI = system: LOX IMVI
M14 = system: M14
MCF7 = system: MCF7
MDA-MB-231 = system: MDA-MB-231
MDA-MB-435 = system: MDA-MB-435
MDA-N = system: MDA-N
MOLT-4 = system: MOLT-4
Malme-3M = system: Malme-3M
NCI-H226 = system: NCI-H226
NCI-H23 = system: NCI-H23
NCI-H460 = system: NCI-H460
NCI-H522 = system: NCI-H522
NCI/ADR-RES = system: NCI/ADR-RES
OVCAR-3 = system: OVCAR-3
OVCAR-5 = system: OVCAR-5
OVCAR-8 = system: OVCAR-8
PC-3 = system: PC-3
RPMI-8226 = system: RPMI-8226
SF-268 = system: SF-268
SF-295 = system: SF-295
SF-539 = system: SF-539
SK-MEL-28 = system: SK-MEL-28
SK-MEL-2 = system: SK-MEL-2
SK-MEL-5 = system: SK-MEL-5
SK-OV-3 = system: SK-OV-3
SN12C = system: SN12C
SNB-19 = system: SNB-19
SR = system: SR
SW-620 = system: SW-620
TK-10 = system: TK-10
U-251 = system: U-251
UACC-257 = system: UACC-257
UACC-62 = system: UACC-62
UO-31 = system: UO-31
786-0 = system: 786-0
ACHN = system: ACHN
DU-145 = system: DU-145
HCC 2998 = system: HCC 2998
OVCAR-4 = system: OVCAR-4
RXF 393 = system: RXF 393
SNB-75 = system: SNB-75

Measured: GI50

CC(=O)OC(C(=O)O)C(OC(C)=O)C(OC(C)=O)C(OC(C)=O)C(=O)O (stereo not given)
inactive: A498 > 100 µM | A549 > 100 µM | BT-549 > 100 µM | CAKI-1 > 100 µM | CCRF-CEM > 100 µM | COLO 205 > 100 µM | EKVX > 100 µM | HCT-116 > 100 µM | HL-60 > 100 µM | HOP-62 > 100 µM | HOP-92 > 100 µM | HT-29 > 100 µM | Hs-578T > 100 µM | IGROV-1 > 100 µM | K562 > 100 µM | KM12 > 100 µM | LOX IMVI > 100 µM | M14 > 100 µM | MCF7 > 100 µM | MDA-MB-231 > 100 µM | MDA-MB-435 > 100 µM | MDA-N > 100 µM | MOLT-4 > 100 µM | Malme-3M > 100 µM | NCI-H226 > 100 µM | NCI-H23 > 100 µM | NCI-H460 > 100 µM | NCI-H522 > 100 µM | NCI/ADR-RES > 100 µM | OVCAR-3 > 100 µM | OVCAR-5 > 100 µM | OVCAR-8 > 100 µM | PC-3 > 100 µM | RPMI-8226 > 100 µM | SF-268 > 100 µM | SF-295 > 100 µM | SF-539 > 100 µM | SK-MEL-28 > 100 µM | SK-MEL-2 > 100 µM | SK-MEL-5 > 100 µM | SK-OV-3 > 100 µM | SN12C > 100 µM | SNB-19 > 100 µM | SR > 100 µM | SW-620 > 100 µM | TK-10 > 100 µM | U-251 > 100 µM | UACC-257 > 100 µM | UACC-62 > 100 µM | UO-31 > 100 µM
> 100 µM: HCT-15

Cc1ccc2oc(=O)c(C(=O)Nc3nc(C45CC6CC(CC(C6)C4)C5)cs3)cc2c1
> 100 µM: HCT-15
inactive: 786-0 > 100 µM | A498 > 100 µM | A549 > 100 µM | ACHN > 100 µM | BT-549 > 100 µM | CAKI-1 > 100 µM | CCRF-CEM > 100 µM | COLO 205 > 100 µM | DU-145 > 100 µM | EKVX > 100 µM | HCC 2998 > 100 µM | HCT-116 > 100 µM | HL-60 > 100 µM | HOP-62 > 100 µM | HOP-92 > 100 µM | HT-29 > 100 µM | Hs-578T > 100 µM | IGROV-1 > 100 µM | K562 > 100 µM | KM12 > 100 µM | LOX IMVI > 100 µM | MCF7 > 100 µM | MDA-MB-231 > 100 µM | MDA-MB-435 > 100 µM | MDA-N > 100 µM | MOLT-4 > 100 µM | Malme-3M > 100 µM | NCI-H226 > 100 µM | NCI-H23 > 100 µM | NCI-H460 > 100 µM | NCI-H522 > 100 µM | NCI/ADR-RES > 100 µM | OVCAR-3 > 100 µM | OVCAR-4 > 100 µM | OVCAR-5 > 100 µM | OVCAR-8 > 100 µM | PC-3 > 100 µM | RPMI-8226 > 100 µM | RXF 393 > 100 µM | SF-268 > 100 µM | SF-295 > 100 µM | SF-539 > 100 µM | SK-MEL-28 > 100 µM | SK-MEL-5 > 100 µM | SN12C > 100 µM | SNB-19 > 100 µM | SNB-75 > 100 µM | SR > 100 µM | SW-620 > 100 µM | U-251 > 100 µM | UACC-257 > 100 µM | UO-31 > 100 µM

COCCNC1CCC(=O)c2[nH]c3ccccc3c21 (stereo not given)
inactive: 786-0 > 100 µM | A498 > 100 µM | A549 > 100 µM | ACHN > 100 µM | BT-549 > 100 µM | CAKI-1 > 100 µM | CCRF-CEM > 100 µM | COLO 205 > 100 µM | DU-145 > 100 µM | EKVX 27.1 µM | HCC 2998 > 100 µM | HCT-116 > 100 µM | HL-60 > 100 µM | HOP-62 > 100 µM | HOP-92 > 100 µM | HT-29 > 100 µM | Hs-578T 83.9 µM | IGROV-1 > 100 µM | K562 > 100 µM | KM12 > 100 µM | LOX IMVI 94.4 µM | M14 > 100 µM | MCF7 > 100 µM | MDA-MB-231 > 100 µM | MDA-MB-435 > 100 µM | MDA-N > 100 µM | MOLT-4 > 100 µM | Malme-3M > 100 µM | NCI-H226 > 100 µM | NCI-H23 > 100 µM | NCI-H460 > 100 µM | NCI-H522 > 100 µM | NCI/ADR-RES > 100 µM | OVCAR-3 40.2 µM | OVCAR-4 > 100 µM | OVCAR-5 > 100 µM | OVCAR-8 > 100 µM | PC-3 > 100 µM | RPMI-8226 > 100 µM | RXF 393 > 100 µM | SF-268 > 100 µM | SF-295 > 100 µM | SF-539 > 100 µM | SK-MEL-28 > 100 µM | SK-MEL-2 > 100 µM | SK-MEL-5 > 100 µM | SN12C > 100 µM | SNB-19 > 100 µM | SNB-75 > 100 µM | SR > 100 µM | SW-620 > 100 µM | TK-10 > 100 µM | U-251 > 100 µM | UACC-257 > 100 µM | UO-31 65.8 µM
> 100 µM: HCT-15

O=C(O)Cc1c(-c2ccc([N+](=O)[O-])cc2)c(=O)oc2cc(O)ccc12
inactive: 786-0 36.5 µM | A498 22.4 µM | A549 37.3 µM | ACHN 24.2 µM | BT-549 23.8 µM | CAKI-1 > 10 µM | CCRF-CEM 22.5 µM | COLO 205 34.2 µM | DU-145 30.4 µM | EKVX 15.1 µM | HCC 2998 25.1 µM | HCT-116 26.1 µM | HL-60 17.7 µM | HT-29 11.6 µM | Hs-578T 25.9 µM | IGROV-1 61.4 µM | K562 30.9 µM | KM12 26.9 µM | LOX IMVI 36.1 µM | M14 32.1 µM | MCF7 32.5 µM | MDA-MB-231 29.4 µM | MDA-MB-435 28.8 µM | MDA-N 30.4 µM | MOLT-4 4.12 µM | Malme-3M 24.1 µM | NCI-H226 29 µM | NCI-H23 36.3 µM | NCI-H460 28.9 µM | NCI-H522 29 µM | NCI/ADR-RES 20 µM | OVCAR-3 18.9 µM | OVCAR-5 30.1 µM | OVCAR-8 23.2 µM | PC-3 28.1 µM | RPMI-8226 19.9 µM | RXF 393 30.3 µM | SF-268 34.8 µM | SF-295 16.1 µM | SF-539 32.4 µM | SK-MEL-28 38 µM | SK-MEL-2 21.2 µM | SK-MEL-5 18.1 µM | SK-OV-3 35.2 µM | SN12C 30.5 µM | SNB-19 25.1 µM | SR 25.9 µM | SW-620 34.8 µM | TK-10 33.2 µM | U-251 15.7 µM | UACC-257 20.4 µM | UACC-62 38.9 µM | UO-31 23.4 µM
24.2 µM: HCT-15

Nc1ccc(-c2nc3ccccc3s2)cc1F
inactive: 786-0 22.6 µM | A549 21.3 µM | ACHN 22 µM | BT-549 68.4 µM | CAKI-1 19.5 µM | CCRF-CEM 5.47 µM | COLO 205 20.9 µM | DU-145 30.2 µM | EKVX 2.59 µM | HCT-116 15.5 µM | HOP-62 30.7 µM | HOP-92 45.4 µM | HT-29 29.2 µM | Hs-578T 29.1 µM | K562 35.6 µM | KM12 28.5 µM | LOX IMVI 44.7 µM | M14 26.8 µM | MDA-MB-231 13.6 µM | MDA-MB-435 31.6 µM | MDA-N 37.2 µM | MOLT-4 10.8 µM | Malme-3M 42 µM | NCI-H23 52.1 µM | NCI-H522 20.9 µM | NCI/ADR-RES 28.8 µM | OVCAR-3 18.5 µM | OVCAR-4 18.7 µM | OVCAR-8 > 100 µM | PC-3 21.4 µM | RXF 393 27.2 µM | SF-268 34 µM | SF-295 25.8 µM | SK-MEL-28 46.6 µM | SK-MEL-2 19.2 µM | SK-MEL-5 20 µM | SK-OV-3 38.5 µM | SN12C 27.7 µM | SNB-19 19.2 µM | SNB-75 21.5 µM | SR 23.6 µM | SW-620 42.3 µM | U-251 15.4 µM | UACC-257 39.6 µM | UACC-62 20.7 µM | UO-31 14.2 µM
33.2 µM: HCT-15
active: A498 0.0775 µM | IGROV-1 < 0.01 µM | MCF7 < 0.01 µM | NCI-H226 < 0.01 µM
